Test results as given in US20030134842A1, “METHODS FOR THE TREATMENT OR PREVENTION OF INFLAMMATORY DISEASES CHARACTERIZED BY ABNORMAL CELL PROLIFERATION” (priority 1997, published 2003).
Where two headings read alike, the source gives them in different places.

Key:
Type in all cases: cell-based
[1] = target: T1, Ca2+-activated potassium channel (Gardos channel) of erythrocytes (Homo sapiens, UniProt O15554); assay: Gardos channel assay
T1 construct: endogenous in cells; host or cells: erythrocytes
T1 sequence (O15554 whole entry): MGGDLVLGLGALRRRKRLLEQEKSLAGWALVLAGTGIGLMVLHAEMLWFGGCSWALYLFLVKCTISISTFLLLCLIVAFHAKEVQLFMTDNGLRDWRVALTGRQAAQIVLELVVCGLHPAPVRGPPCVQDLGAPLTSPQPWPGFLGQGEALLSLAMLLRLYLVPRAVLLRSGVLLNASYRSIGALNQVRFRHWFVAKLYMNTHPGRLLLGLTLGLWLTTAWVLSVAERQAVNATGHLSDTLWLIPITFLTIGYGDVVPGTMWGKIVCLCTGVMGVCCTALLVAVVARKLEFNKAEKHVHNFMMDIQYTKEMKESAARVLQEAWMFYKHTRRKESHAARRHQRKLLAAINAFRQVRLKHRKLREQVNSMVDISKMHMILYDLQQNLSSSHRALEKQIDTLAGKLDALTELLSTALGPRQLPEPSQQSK

[2] = test system: NIH 3T3 mouse fibroblast cells; assay: Mitogenic assay (mitogen-induced cell proliferation); conditions: for IC50: mitogen-induced cell proliferation
MCF7 = assay: SRB antiproliferative assay MCF7; conditions: Homo sapiens
From the text: (§1) The cells were passaged using Trypsin (Gibco).

A549 = assay: SRB antiproliferative assay A549; conditions: Homo sapiens
From the text: as §1

MMRU = assay: SRB antiproliferative assay MMRU; conditions: Homo sapiens
From the text: as §1

HT29 = assay: SRB antiproliferative assay HT29; conditions: Homo sapiens
From the text: as §1

HTB174 = assay: SRB antiproliferative assay HTB174; conditions: HTB174 (Lung), 5% FCS/5 day incubation; read-out: Test Compound IC50
From the text: as §1

HEPG2 = assay: SRB antiproliferative assay HEPG2; conditions: Homo sapiens; HEPG2 (Hepatocel), 5% FCS/5 day incubation; read-out: Test Compound IC50
From the text: as §1

[3] = Mus musculus, NIH3T3, NIH 3T3 mouse fibroblast cells
[4] = A549, A549, 5% FCS/2 days, read-out: Test Compound IC50 Value in Cell Lines
[5] = MMRU, 5% FCS/2 days, read-out: Test Compound IC50 Value in Cell Lines
[6] = HT-29, HT29, 5% FCS/2 days, read-out: Test Compound IC50 Value in Cell Lines
[7] = MCF7 (Breast), 5% FCS/5 day incubation, read-out: Test Compound IC50
[8] = A549, A549 (Lung), 5% FCS/5 day incubation, read-out: Test Compound IC50
[9] = MMRU (Melanoma), 5% FCS/5 day incubation, read-out: Test Compound IC50
[10] = HT-29, HT29 (Colon), 5% FCS/5 day incubation, read-out: Test Compound IC50

| Structure (SMILES) | IC50 [1] | inhibition at 10 µM ([1]; 10 μM compound) | IC50 [2, 3] | IC50 (MCF7; [7]) | IC50 (A549; [8]) | IC50 (HTB174) | IC50 (HEPG2) | IC50 (MMRU; [9]) | IC50 (HT29; [10]) | other results |
| --- | --- | --- | --- | --- | --- | --- | --- | --- | --- | --- |
| c1ccc(C2c3ccccc3CNc3ccccc32)cc1 (stereo not drawn) [Compound 1] | 775 nM | 75.2% | – | – | – | – | – | – | – | – |
| CN1Cc2ccccc2C(c2ccccc2)c2ccccc21 (stereo not drawn) [Compound 2] | 1300 nM | 99% | 5200 nM | – | – | – | – | – | – | – |
| Clc1ccccc1C1c2ccccc2CNc2ccccc21 (stereo not drawn) [Compound 3] | 886 nM | 97.4% | 2400 nM | – | – | – | – | – | – | – |
| CN1Cc2ccccc2C(c2ccccc2Cl)c2ccccc21 (stereo not drawn) [Compound 4] | 384 nM | 98.1% | 1500 nM | – | – | – | – | – | – | IC50 (MCF7; MCF7, 2% FCS/3 days, read-out: Test Compound IC50 Value in Cell Lines): 1700 nM; IC50 (A549; A549, A549, 2% FCS/3 days, read-out: Test Compound IC50 Value in Cell Lines): 11400 nM; IC50 (MMRU; MMRU, 2% FCS/3 days, read-out: Test Compound IC50 Value in Cell Lines): 4600 nM; IC50 (HT29; HT-29, HT29, 2% FCS/3 days, read-out: Test Compound IC50 Value in Cell Lines): 9700 nM |
| c1ccc(CN2Cc3ccccc3C(c3ccccc3)c3ccccc32)cc1 (stereo not drawn) [Compound 5] | > 10000 nM | 14.4% | – | – | – | – | – | – | – | IC50 (A549; [4]): 1400 nM; IC50 (MMRU; [5]): > 10000 nM; IC50 (HT29; [6]): 1000 nM |
| COC(=O)N1Cc2ccccc2C(c2ccccc2)c2ccccc21 (stereo not drawn) [Compound 6] | 236 nM | 97.5% | – | – | – | – | – | – | – | IC50 (A549; [4]): > 10000 nM; IC50 (MMRU; [5]): 10000 nM; IC50 (HT29; [6]): > 10000 nM |
| CN1Cc2ccccc2C(c2ccccc2)c2cc(Br)ccc21 (stereo not drawn) [Compound 7] | > 10000 nM | 35.8% | 1600 nM | – | – | – | – | – | – | IC50 (A549; [4]): > 10000 nM; IC50 (MMRU; [5]): > 10000 nM; IC50 (HT29; [6]): > 10000 nM |
| Clc1ccccc1C1c2ccccc2CN(Cc2ccccc2)c2ccccc21 (stereo not drawn) [Compound 8] | – | 0% | 2200 nM | – | – | – | – | – | – | – |
| CCOC(=O)C(=O)N1Cc2ccccc2C(c2ccccc2)c2ccccc21 (stereo not drawn) [Compound 10] | 1530 to 1940 nM | 63% | – | – | – | – | – | – | – | – |
| O=C(O)C(=O)N1Cc2ccccc2C(c2ccccc2)c2ccccc21 (stereo not drawn) [Compound 11] | > 10000 nM | 9.5% | – | – | – | – | – | – | – | – |
| COc1ccc2c(c1)CNc1ccccc1C2(c1ccccc1)c1ccc(F)cc1 (stereo not drawn) [Compound 12] | > 10000 nM | 54.8% | – | – | – | – | – | – | – | – |
| O=C(c1ccc(Cl)cc1)N1Cc2ccccc2C(c2ccccc2)c2ccccc21 (stereo not drawn) [Compound 13] | – | 0% | 1700 nM | 2700 nM | 3100 nM | 1400 nM | 1800 nM | 1500 nM | 1500 nM | – |
| Clc1ccc2c(c1)C(c1ccccc1)c1cc3ccccc3cc1CN2 (stereo not drawn) [Compound 15] | > 10000 nM | 9.5% | – | – | – | – | – | – | – | – |
| O=C(c1ccccc1)N1Cc2ccccc2C(c2ccccc2)c2ccccc21 (stereo not drawn) [Compound 16] | > 10000 nM | 0.45% | 1700 nM | 4200 nM | > 5000 nM | 2600 nM | 3400 nM | 2700 nM | 2600 nM | – |
| COc1cccc(C(=O)N2Cc3ccccc3C(c3ccccc3)c3ccccc32)c1 (stereo not drawn) [Compound 17] | > 10000 nM | 20.6% | 1600 nM | 4500 nM | > 5000 nM | 3600 nM | 2600 nM | 2500 nM | 1700 nM | – |
| COc1cccc2c1C(c1ccccc1Cl)c1cc(Cl)ccc1NC2 (stereo not drawn) [Compound 18] | 502 to 692 nM | 81.5% | 2600 nM | – | – | – | – | – | – | – |
| COc1ccc2c(c1)CNc1ccc(Cl)cc1C2c1ccccc1Cl (stereo not drawn) [Compound 19] | > 10000 nM | 52% | 1600 nM | – | – | – | – | – | – | – |
| COc1ccc(C(=O)N2Cc3ccccc3C(c3ccccc3)c3ccccc32)cc1 (stereo not drawn) [Compound 21] | > 10000 nM | 2.1% | 2700 nM | 3500 nM | 4200 nM | 1900 nM | 1900 nM | 1500 nM | 1800 nM | – |
| Cc1ccc(C(=O)N2Cc3ccccc3C(c3ccccc3)c3ccccc32)cc1 (stereo not drawn) [Compound 22] | > 10000 nM | 14.9% | 3600 nM | 1800 nM | 1900 nM | 1400 nM | 1400 nM | 900 nM | 700 nM | – |
| COc1ccc2c(c1)CN(C(=O)c1ccc(Cl)cc1)c1ccc(Cl)cc1C2c1ccccc1Cl (stereo not drawn) [Compound 23] | > 10000 nM | 18.2% | – | 3100 nM | 3400 nM | 1800 nM | 2300 nM | 2200 nM | 2100 nM | – |
| COc1cccc2c1C(c1ccccc1Cl)c1cc(Cl)ccc1N(C(=O)c1ccc(Cl)cc1)C2 (stereo not drawn) [Compound 24] | > 10000 nM | 32 to 55% | – | – | – | – | – | – | – | – |
| O=C(c1ccc2ccccc2c1)N1Cc2ccccc2C(c2ccccc2)c2ccccc21 (stereo not drawn) [Compound 25] | > 10000 nM | 8.5% | – | – | – | – | – | – | – | – |
| CN1Cc2ccccc2C(c2ccccc2Cl)c2ccccc21 (stereo not drawn) [Compound 29] | – | – | – | – | – | – | – | – | – | Mitogenic Assay Inhibition ([2]; 10 µM compound, NIH 3T3 mouse fibroblast cells): 99.0%; IC50 ([2]; NIH 3T3 mouse fibroblast cells): 800 nM; Gardos Channel Assay Inhibition ([1]; 10 μM compound, 10 µM): 95.1%; IC50 (A549; [4]): > 10000 nM; IC50 (MMRU; [5]): > 10000 nM; IC50 (HT29; [6]): > 10000 nM |
| Nc1ccc(C(=O)N2Cc3ccccc3C(c3ccccc3Cl)c3ccccc32)cc1 (stereo not drawn) [Compound 34] | > 10000 nM | 12% | 4000 nM | 2000 nM | > 5000 nM | 900 nM | 1500 nM | 1200 nM | 1600 nM | IC50 (A549; [4]): > 10000 nM; IC50 (MMRU; [5]): > 10000 nM; IC50 (HT29; [6]): 6800 nM |
| O=C(Nc1ccc([N+](=O)[O-])cc1)N1Cc2ccccc2C(c2ccccc2Cl)c2ccccc21 (stereo not drawn) [Compound 35] | 71 to 99 nM | 98.3% | – | 2400 nM | > 5000 nM | 4000 nM | 4500 nM | 3100 nM | 4800 nM | IC50 (A549; [4]): > 10000 nM; IC50 (MMRU; [5]): > 10000 nM; IC50 (HT29; [6]): 10000 nM |
